The record followed here is publication PMC3047710 (Chemmedchem, 2010).

What all share (format): biochemical
Assay [1] has as its target T1, HsDHFR (human DHFR) (Homo sapiens, UniProt P00374).
T1 sequence (P00374 1-187): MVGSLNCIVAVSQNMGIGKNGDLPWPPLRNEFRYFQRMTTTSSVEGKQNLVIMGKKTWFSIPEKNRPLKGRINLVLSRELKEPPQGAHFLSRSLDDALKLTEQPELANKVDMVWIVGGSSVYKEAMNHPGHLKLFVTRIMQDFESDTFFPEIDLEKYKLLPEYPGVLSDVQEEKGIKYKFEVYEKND
The assay can be described thus: DHFR inhibition assay.

Assay [2] addresses T2, TbDHFR (T. brucei dihydrofolate reductase) (Trypanosoma brucei, UniProt Q27783). The assay can be described thus: DHFR inhibition assay.
The target in assay [3] is T1, HsDHFR (human DHFR). The assay can be described thus: DHFR inhibition assay. Particulars: unreliable: sample contaminated with ~25% of compound 33.
The target of assay [4] is T2, TbDHFR (T. brucei dihydrofolate reductase). The assay can be described thus: DHFR inhibition assay. Particulars: unreliable: sample contaminated with ~25% of compound 33.
The target of assay [5] is T3, TbPTR1 (T. brucei pteridine reductase 1) (Trypanosoma brucei, UniProt O76290).
T3 sequence (O76290 1-268): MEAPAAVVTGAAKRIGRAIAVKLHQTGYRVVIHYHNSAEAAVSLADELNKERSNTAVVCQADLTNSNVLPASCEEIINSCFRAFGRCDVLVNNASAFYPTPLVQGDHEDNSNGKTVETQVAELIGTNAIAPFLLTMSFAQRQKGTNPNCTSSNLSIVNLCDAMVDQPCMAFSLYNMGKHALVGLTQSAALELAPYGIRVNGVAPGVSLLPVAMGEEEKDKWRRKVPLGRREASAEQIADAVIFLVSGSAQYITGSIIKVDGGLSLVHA
The assay can be described thus: HPLC-based PTR1 assay.

For assay [6], the target named is T4, endogenous PTR1 in clarified T. brucei lysate (Trypanosoma brucei, UniProt O76290).
T4 sequence (O76290 1-268): T3 sequence (O76290 1-268)
The assay can be described thus: HPLC-based PTR1 assay.

Where only a bound is given, the exact number is not on record here.

T2 sequence (Q27783 whole entry): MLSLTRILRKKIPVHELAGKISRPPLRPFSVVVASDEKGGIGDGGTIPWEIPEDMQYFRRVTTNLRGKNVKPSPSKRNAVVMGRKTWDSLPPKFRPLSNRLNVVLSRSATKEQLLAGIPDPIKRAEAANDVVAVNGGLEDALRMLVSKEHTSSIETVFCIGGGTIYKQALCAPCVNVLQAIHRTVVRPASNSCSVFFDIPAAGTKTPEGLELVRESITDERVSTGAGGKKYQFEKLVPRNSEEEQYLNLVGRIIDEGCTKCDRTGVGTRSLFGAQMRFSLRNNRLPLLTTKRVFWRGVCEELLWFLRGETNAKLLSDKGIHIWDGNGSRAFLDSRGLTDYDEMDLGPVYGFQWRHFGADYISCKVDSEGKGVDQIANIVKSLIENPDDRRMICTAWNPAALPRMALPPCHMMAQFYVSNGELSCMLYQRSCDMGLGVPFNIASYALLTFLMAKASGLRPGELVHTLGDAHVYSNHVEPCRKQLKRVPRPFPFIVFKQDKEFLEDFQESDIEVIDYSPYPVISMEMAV

As to `Nc1nc2cccc(OCc3ccccc3)c2n1Cc1ccc(Cl)c(Cl)c1` [compound 31], the IC50 in assay [1] and in assay [2] was > 50 µM throughout.

Turning to `Nc1nc2c(-c3ccccc3)cccc2n1Cc1ccc(Cl)c(Cl)c1` [compound 27], the IC50 in assay [1] and in assay [2] was > 30 µM throughout.

Regarding `Nc1nc2cccc(Cl)c2n1Cc1ccc(Cl)c(Cl)c1` [compound 29], the values for the IC50 in assay [1] and in assay [2] were > 50 µM and > 30 µM, respectively.

For the compound `COc1cccc2nc(N)n(Cc3ccc(Cl)c(Cl)c3)c12` [compound 33], the figures for the IC50 in assay [1] and in assay [2] were > 50 µM and > 30 µM, respectively.

For the compound `CCCOc1cccc2c1nc(N)n2Cc1ccc(Cl)c(Cl)c1` [compound 25], the results for the IC50 in assay [1] and in assay [2] were > 50 µM and > 30 µM, respectively.

Turning to `Nc1nc2c(OCc3ccccc3)cccc2n1Cc1ccc(Cl)c(Cl)c1` [compound 26], the IC50 in assay [1] and in assay [2] was > 50 µM throughout.

In the case of `CCCOc1cccc2nc(N)n(Cc3ccc(Cl)c(Cl)c3)c12` [compound 30], the IC50 was > 50 µM in assay [1] and > 30 µM in assay [2].

With `COc1cccc2c1nc(N)n2Cc1ccc(Cl)c(Cl)c1` [compound 28], the “HsDHFR IC50” value in assay [3] is > 50 µM. Besides, the “TbDHFR IC50” value in assay [4] was > 30 µM.

Consider `Nc1nc2c(Cl)cccc2n1Cc1ccc(Cl)c(Cl)c1` [compound 24], for which the figures for the IC50 in assay [1] and in assay [2] were > 50 µM and > 30 µM, respectively.

Consider `Nc1nc2ccccc2n1Cc1ccc(Cl)c(Cl)c1` [compound 11], for which the IC50 in assay [1] and in assay [2] was > 50 µM each time.

Take `Nc1nc2cccc(-c3ccccc3)c2n1Cc1ccc(Cl)c(Cl)c1` [compound 32]: the IC50 is > 50 µM in assay [1], > 50 µM in assay [2], 0.99 ± 0.13 nM in assay [5] and 0.88 ± 0.13 nM in assay [6].

`Cc1cc2nc(N)n(Cc3ccc(Cl)c(Cl)c3)c2cc1C` [compound 34]: the IC50 in assay [1] and in assay [2] was > 30 µM throughout.

As a reminder, the IC50 is the concentration that inhibits the measured activity by half. The low end stands for greater potency in that assay, the high end for weaker potency in that assay.
